The text below walks through data of patent US20260022142A1, “MACROCYCLIC IMMUNOMODULATORS” (Bristol-Myers Squibb Company, priority 2022, published 2026).

Bridge positions count the residues as written; N and C are the ends. Square brackets hold non-standard residues; d marks the D form. Peptide text beside a SMILES is read from it. * marks the point of attachment. ξ: configuration not given here. Phe(4-COOH) = N[C@@H](Cc1ccc(C(=O)O)cc1)C(=O)O; Bip = N[C@@H](Cc1ccc(-c2ccccc2)cc1)C(=O)O; Phe(3-Me) = Cc1cccc(C[C@H](N)C(=O)O)c1; Val(3-OH) = CC(C)(O)[C@H](N)C(=O)O; 4Pal = N[C@@H](Cc1ccncc1)C(=O)O; Cha = N[C@@H](CC1CCCCC1)C(=O)O; Thr(3ξ) = CC(O)[C@H](N)C(=O)O; Carboxymethyl = O=C(O)C*; Orn = NCCC[C@H](N)C(=O)O; Aun = NCCCCCCCCCCC(=O)O; Dab = NCC[C@H](N)C(=O)O; Dap = NC[C@H](N)C(=O)O; AEEA = NCCOCCOCC(=O)O

As a reminder, the IC50 is the concentration at which inhibition is half-maximal.

The target in the assay is T1, PD-1/PD-L1 interaction (PE-labeled human PD-L1-Ig binding to Jurkat cell line over-expressing human PD-1) (Homo sapiens, UniProt Q15116).
T1 construct: expressed in transfected cells; host or cells: Jurkat
T1 sequence (Q15116 25-288): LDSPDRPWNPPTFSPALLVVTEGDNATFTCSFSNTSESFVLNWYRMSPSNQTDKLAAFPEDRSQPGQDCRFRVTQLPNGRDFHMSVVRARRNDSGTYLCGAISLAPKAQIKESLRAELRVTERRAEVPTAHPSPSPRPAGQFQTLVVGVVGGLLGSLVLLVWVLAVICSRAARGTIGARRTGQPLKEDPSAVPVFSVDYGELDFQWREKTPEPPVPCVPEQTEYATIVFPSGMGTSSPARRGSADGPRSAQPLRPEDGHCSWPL
The assay can be described thus: Jurkat-PD-1 Cell Binding High-Content Screening Assay (CBA). The format is cell-based. The settings on record: Jurkat cell line over-expressing human PD-1; PE-labeled PD-L1-Ig 20 nM final; read-out: Jurkat hPD1-PDL1 IC50. In a few lines: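 Jurkat cells stably over-expressing human PD-1 were seeded in DMEM with 10% fetal calf serum and pre-incubated with compound for 2 h at 37° C. PE-labeled human PD-L1-Ig was then added at 20 nM final for 1 hour, after which cells were fixed with paraformaldehyde, Hoechst-stained and imaged by high-content microscopy.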
With `CC(C)C[C@@H]1NC(=O)[C@H](Cc2c[nH]c3ccccc23)NC(=O)[C@H](CC(=O)O)NC(=O)[C@H](Cc2ccc(OCC(=O)O)cc2)NC(=O)[C@H](CCN)NC(=O)CSC[C@@H](C(=O)NCCOCCOCC(=O)NCCCCCCCCCCC(=O)O)NC(=O)[C@H](C(C)O)NC(=O)[C@H](C(C)C)NC(=O)[C@H](CC2CCCCC2)NC(=O)[C@H](Cc2cnc[nH]2)NC(=O)[C@@H](CC(C)C)NC(=O)[C@H](CCCN)NC(=O)[C@H](C(C)C)NC(=O)[C@H](Cc2ccc(-c3ccccc3)cc2)NC1=O` (stereo partly drawn) [Compound 3700] ({CH2CO}-[Dab]Y(Carboxymethyl)DWL[Bip]V[Orn][dL]H[Cha]V[Thr(3ξ)]C[AEEA][Aun]-OH; thioether N-14), the IC50 was 56.7 nM.

Regarding `CC(C)C[C@@H]1NC(=O)[C@H](Cc2c[nH]c3ccccc23)NC(=O)[C@H](CC(=O)O)NC(=O)[C@H](Cc2ccc(OCC(=O)O)cc2)NC(=O)[C@H](CCN)NC(=O)CSC[C@@H](C(=O)NCCOCCOCC(=O)NCCCCCCCCCCC(=O)O)NC(=O)[C@H](CO)NC(=O)[C@H](C(C)C)NC(=O)[C@H](CC2CCCCC2)NC(=O)[C@H](Cc2cnc[nH]2)NC(=O)[C@@H](CC(C)C)NC(=O)[C@H](CCCN)NC(=O)[C@H](C(C)C)NC(=O)[C@H](Cc2ccc(-c3ccccc3)cc2)NC1=O` [Compound 3701] ({CH2CO}-[Dab]Y(Carboxymethyl)DWL[Bip]V[Orn][dL]H[Cha]VSC[AEEA][Aun]-OH; thioether N-14), the IC50 was found to be 92.2 nM.

On to `Cc1cccc(C[C@@H]2NC(=O)[C@H](CC(=O)O)NC(=O)[C@H](Cc3ccc(OCC(=O)O)cc3)NC(=O)[C@H](C(C)O)NC(=O)CSC[C@@H](C(=O)NCCOCCOCC(=O)NCCCCCCCCCCC(=O)O)NC(=O)[C@H](Cc3cnc[nH]3)NC(=O)[C@H](C(C)O)NC(=O)[C@H](CC3CCCCC3)NC(=O)[C@H](CCN)NC(=O)[C@@H](CC(C)C)NC(=O)[C@H](CCCN)NC(=O)[C@H](C(C)C)NC(=O)[C@H](Cc3ccc(-c4ccccc4)cc3)NC(=O)[C@H](C(C)C)NC2=O)c1` (stereo partly drawn) [Compound 3703] ({CH2CO}-[Thr(3ξ)]Y(Carboxymethyl)D[Phe(3-Me)]V[Bip]V[Orn][dL][Dab][Cha][Thr(3ξ)]HC[AEEA][Aun]-OH; thioether N-14), for which the IC50 stood at 23.4 nM.

Turning to `Cc1cccc(C[C@@H]2NC(=O)[C@H](CC(=O)O)NC(=O)[C@H](Cc3ccc(OCC(=O)O)cc3)NC(=O)[C@H](C(C)O)NC(=O)CSC[C@@H](C(=O)N[C@@H](CCN)C(=O)NCCCCCCCCCCC(=O)O)NC(=O)[C@H](CO)NC(=O)[C@H](Cc3cnc[nH]3)NC(=O)[C@H](CC3CCCCC3)NC(=O)[C@H](CCN)NC(=O)[C@@H](CC(C)C)NC(=O)[C@H](CCCN)NC(=O)[C@H](Cc3ccc(OCC(=O)O)cc3)NC(=O)[C@H](Cc3ccc(-c4ccccc4)cc3)NC(=O)[C@H](Cc3ccc(C(=O)O)cc3)NC2=O)c1` (stereo partly drawn) [Compound 3704] ({CH2CO}-[Thr(3ξ)]Y(Carboxymethyl)D[Phe(3-Me)][Phe(4-COOH)][Bip]Y(Carboxymethyl)[Orn][dL][Dab][Cha]HSC[Dab][Aun]-OH; thioether N-14), the IC50 came to 21.9 nM.

In the case of `Cc1cccc(C[C@@H]2NC(=O)[C@H](CC(=O)O)NC(=O)[C@H](Cc3ccc(OCC(=O)O)cc3)NC(=O)[C@H](CN)NC(=O)CSC[C@@H](C(=O)N[C@@H](CCN)C(=O)NCCCCCCCCCCC(=O)O)NC(=O)[C@H](CO)NC(=O)[C@H](Cc3cnc[nH]3)NC(=O)[C@H](CC3CCCCC3)NC(=O)[C@H](CCN)NC(=O)[C@@H](CC(C)C)NC(=O)[C@H](CCCN)NC(=O)[C@H](Cc3ccc(OCC(=O)O)cc3)NC(=O)[C@H](Cc3ccc(-c4ccccc4)cc3)NC(=O)[C@H](Cc3ccc(C(=O)O)cc3)NC2=O)c1` [Compound 3705] ({CH2CO}-[Dap]Y(Carboxymethyl)D[Phe(3-Me)][Phe(4-COOH)][Bip]Y(Carboxymethyl)[Orn][dL][Dab][Cha]HSC[Dab][Aun]-OH; thioether N-14), the IC50 is 24.2 nM.

Turning to `Cc1cccc(C[C@@H]2NC(=O)[C@H](CC(=O)O)NC(=O)[C@H](Cc3ccc(OCC(=O)O)cc3)NC(=O)[C@H](Cc3ccccc3)NC(=O)CSC[C@@H](C(=O)N[C@@H](CCN)C(=O)NCCCCCCCCCCC(=O)O)NC(=O)[C@H](CO)NC(=O)[C@H](Cc3cnc[nH]3)NC(=O)[C@H](CC3CCCCC3)NC(=O)[C@H](CCN)NC(=O)[C@@H](CC(C)C)NC(=O)[C@H](CCCN)NC(=O)[C@H](Cc3ccc(OCC(=O)O)cc3)NC(=O)[C@H](Cc3ccc(-c4ccccc4)cc3)NC(=O)[C@H](Cc3ccc(C(=O)O)cc3)NC2=O)c1` [Compound 3706] ({CH2CO}-FY(Carboxymethyl)D[Phe(3-Me)][Phe(4-COOH)][Bip]Y(Carboxymethyl)[Orn][dL][Dab][Cha]HSC[Dab][Aun]-OH; thioether N-14), the IC50 was 70.3 nM.

As to `Cc1cccc(C[C@@H]2NC(=O)[C@H](CC(=O)O)NC(=O)[C@H](Cc3ccc(OCC(=O)O)cc3)NC(=O)[C@H](CN)NC(=O)CSC[C@@H](C(=O)N[C@@H](CCN)C(=O)NCCCCCCCCCCC(=O)O)NC(=O)[C@H](Cc3cnc[nH]3)NC(=O)[C@H](C(C)O)NC(=O)[C@H](CC3CCCCC3)NC(=O)[C@H](CCN)NC(=O)[C@@H](CC(C)C)NC(=O)[C@H](CCCN)NC(=O)[C@H](Cc3ccc(OCC(=O)O)cc3)NC(=O)[C@H](Cc3ccc(-c4ccccc4)cc3)NC(=O)[C@H](Cc3ccc(C(=O)O)cc3)NC2=O)c1` (stereo partly drawn) [Compound 3708] ({CH2CO}-[Dap]Y(Carboxymethyl)D[Phe(3-Me)][Phe(4-COOH)][Bip]Y(Carboxymethyl)[Orn][dL][Dab][Cha][Thr(3ξ)]HC[Dab][Aun]-OH; thioether N-14), the IC50 was 11.4 nM.

In the case of `Cc1cccc(C[C@@H]2NC(=O)[C@H](CC(=O)O)NC(=O)[C@H](Cc3ccc(OCC(=O)O)cc3)NC(=O)[C@H](Cc3ccccc3)NC(=O)CSC[C@@H](C(=O)N[C@@H](CCN)C(=O)NCCCCCCCCCCC(=O)O)NC(=O)[C@H](Cc3cnc[nH]3)NC(=O)[C@H](C(C)O)NC(=O)[C@H](CC3CCCCC3)NC(=O)[C@H](CCN)NC(=O)[C@@H](CC(C)C)NC(=O)[C@H](CCCN)NC(=O)[C@H](Cc3ccc(OCC(=O)O)cc3)NC(=O)[C@H](Cc3ccc(-c4ccccc4)cc3)NC(=O)[C@H](Cc3ccc(C(=O)O)cc3)NC2=O)c1` (stereo partly drawn) [Compound 3709] ({CH2CO}-FY(Carboxymethyl)D[Phe(3-Me)][Phe(4-COOH)][Bip]Y(Carboxymethyl)[Orn][dL][Dab][Cha][Thr(3ξ)]HC[Dab][Aun]-OH; thioether N-14), the IC50 came to 54.5 nM.

In the case of `CC(=O)NCC[C@@H]1NC(=O)[C@H](C(C)C)NC(=O)[C@H](CC2CCCCC2)NC(=O)[C@H](CCN)NC(=O)[C@@H](CC(C)C)NC(=O)[C@H](CCC(=O)O)NC(=O)[C@H](C(C)C)NC(=O)[C@H](Cc2ccc(-c3ccccc3)cc2)NC(=O)[C@H](CC(C)C)NC(=O)[C@H](Cc2c[nH]c3ccccc23)NC(=O)[C@H](CC(=O)O)NC(=O)[C@H](Cc2ccc(OCC(=O)O)cc2)NC(=O)[C@H](C(C)O)NC(=O)CSC[C@@H](C(=O)NCCOCCOCC(=O)NCCCCCCCCCCC(=O)O)NC1=O` (stereo partly drawn) [Compound 3710] ({CH2CO}-[Thr(3ξ)]Y(Carboxymethyl)DWL[Bip]VE[dL][Dab][Cha]V[Dab](Ac)C[AEEA][Aun]-OH; thioether N-14), the IC50 turned out to be 82.2 nM.

With `CC(=O)NCC[C@@H]1NC(=O)[C@H](C(C)C)NC(=O)[C@H](CC2CCCCC2)NC(=O)[C@H](CCN)NC(=O)[C@@H](CC(C)C)NC(=O)[C@H](CCC(=O)O)NC(=O)[C@H](C(C)C)NC(=O)[C@H](Cc2ccc(-c3ccccc3)cc2)NC(=O)[C@H](CC(C)C)NC(=O)[C@H](Cc2c[nH]c3ccccc23)NC(=O)[C@H](CC(=O)O)NC(=O)[C@H](Cc2ccc(OCC(=O)O)cc2)NC(=O)[C@H](Cc2ccc(OCC(=O)O)cc2)NC(=O)CSC[C@@H](C(=O)NCCOCCOCC(=O)NCCCCCCCCCCC(=O)O)NC1=O` [Compound 3711] ({CH2CO}-Y(Carboxymethyl)Y(Carboxymethyl)DWL[Bip]VE[dL][Dab][Cha]V[Dab](Ac)C[AEEA][Aun]-OH; thioether N-14), the IC50 is 91.5 nM.

In the case of `Cc1cccc(C[C@@H]2NC(=O)[C@H](CC(=O)O)NC(=O)[C@H](Cc3ccc(OCC(=O)O)cc3)NC(=O)[C@H](Cc3ccncc3)NC(=O)CSC[C@@H](C(=O)N[C@@H](CCN)C(=O)NCCCCCCCCCCC(=O)O)NC(=O)[C@H](CO)NC(=O)[C@H](C(C)(C)O)NC(=O)[C@H](CC3CCCCC3)NC(=O)[C@H](CCN)NC(=O)[C@@H](CC(C)C)NC(=O)[C@H](CCCN)NC(=O)[C@H](Cc3ccc(C(=O)O)cc3)NC(=O)[C@H](Cc3ccc(-c4ccccc4)cc3)NC(=O)[C@H](Cc3ccc(C(=O)O)cc3)NC2=O)c1` [Compound 3712] ({CH2CO}-[4Pal]Y(Carboxymethyl)D[Phe(3-Me)][Phe(4-COOH)][Bip][Phe(4-COOH)][Orn][dL][Dab][Cha][Val(3-OH)]SC[Dab][Aun]-OH; thioether N-14), the concentration for half-maximal inhibition (IC50) was determined as 129 nM.

As to `Cc1cccc(C[C@@H]2NC(=O)[C@H](CC(=O)O)NC(=O)[C@H](Cc3ccc(OCC(=O)O)cc3)NC(=O)[C@H](CCN)NC(=O)CSC[C@@H](C(=O)N[C@@H](CCN)C(=O)NCCCCCCCCCCC(=O)O)NC(=O)[C@H](CO)NC(=O)[C@H](C(C)(C)O)NC(=O)[C@H](CC3CCCCC3)NC(=O)[C@H](Cc3c[nH]cn3)NC(=O)[C@@H](CC(C)C)NC(=O)[C@H](CCCN)NC(=O)[C@H](Cc3ccc(OCC(=O)O)cc3)NC(=O)[C@H](Cc3ccc(-c4ccccc4)cc3)NC(=O)[C@H](Cc3ccc(C(=O)O)cc3)NC2=O)c1` [Compound 3714] ({CH2CO}-[Dab]Y(Carboxymethyl)D[Phe(3-Me)][Phe(4-COOH)][Bip]Y(Carboxymethyl)[Orn][dL]H[Cha][Val(3-OH)]SC[Dab][Aun]-OH; thioether N-14), the IC50 worked out at 12.4 nM.
